The source of these data is publication PMC5404542, “In Vitro and In Vivo Antifungal Profile of a Novel and Long-Acting Inhaled Azole, PC945, on Aspergillus fumigatus Infection” (Antimicrobial Agents and Chemotherapy, 2017).

One data set deals with A. fumigatus ATCC 204305. The experiment in a line: MIC with and without BSA supplementation, quality control strain. The settings on record: Aspergillus fumigatus.
The subject of data set [1] is Penicillium chrysogenum (ATCC 9480). The experiment in a line: MIC, CLSI. As to conditions: ATCC9480, 1 strain. Format: cell-based.
For data set [2], the system named is Trichophyton rubrum (ATCC 10218). The experiment in a line: MIC, CLSI. Format: cell-based. As to conditions: ATCC10218, 1 strain.
Data set [3] deals with Aspergillus niger (ATCC 1015). The experiment in a line: MIC, EUCAST. The settings on record: ATCC1015. It is filed as cell-based.
Data set [4] deals with Candida albicans (20240.047, ATCC 10231). The experiment in a line: MIC, CLSI. Format: cell-based. The settings on record: ATCC10231, read-out: MIC (the MIC given is the MIC50).
Data set [5] concerns Rhizopus oryzae (ATCC 11145). The experiment in a line: MIC, CLSI. It is filed as cell-based.
The test system of data set [6] is BEAS2B cells infected with A. fumigatus. The experiment in a line: Persistence of action on bronchial epithelial cells (galactomannan in supernatant). Format: cell-based, Aspergillus fumigatus. As to conditions: for IC50: Aspergillus fumigatus, BEAS-2B. On the procedure: The persistence of action of test agents was evaluated on immortalized bronchial epithelial cells (BEAS2B cells). […] Test and reference articles or undiluted DMSO (as vehicle) (0.5 μl/well) was added to the appropriate wells of the washout plate to give a final concentration of 0.5% DMSO. The plate was incubated for exactly 1 h at 37°C and 5% CO2. After the incubation time had elapsed, all wells on the washout plate were aspirated, and growth medium (100 μl/well) was added across the plate. After 24 h of incubation at 37°C, test and reference articles or undiluted DMSO (as vehicle) (0.5 μl/well) was added to the appropriate wells of the nonwashout plate to give a final concentration of 0.5% DMSO. The plate was incubated for exactly 1 h at 37°C and 5% CO2, after which A. fumigatus conidia were added across both plates to a final concentration of 1 × 10^3/well.

The subject of data set [7] is 96 clinically isolated A. fumigatus strains. The experiment in a line: MIC against 96 clinically isolated strains (EUCAST, visual).
Procedure: (§1) Conidia were added across the plate to a final concentration of 1 × 10^5 ml^−1. […] Determination of antifungal activity against 50 A. fumigatus clinical isolates from St. Louis Hospital (Paris, France) was performed with 96-well plates, using the modified EUCAST method in the presence of 0.5% BSA as described above. Antifungal susceptibility testing of 46 A. fumigatus isolates (obtained from the NW England Mycology Reference Centre) was performed by Evotec UK Ltd. (Manchester, United Kingdom) according to EUCAST guidelines.
Data set [8] deals with Aspergillus carbonarius (ATCC 8740). The experiment in a line: MIC, CLSI. The settings on record: ATCC8740. It is filed as cell-based.
Data set [9] deals with Cryptococcus neoformans (ATCC 24067). The experiment in a line: MIC, CLSI. The settings on record: Cryptococcus neoformans, ATCC24067. It is filed as cell-based.
For data set [10], the system named is Cladosporium argillaceum (ATCC 38013). The experiment in a line: MIC, CLSI. It is filed as cell-based. The settings on record: Rhizocladosporium argillaceum, ATCC38013, 1 strain.
For data set [11], the system named is Penicillium citrinum (ATCC 9849). The experiment in a line: MIC, CLSI. As to conditions: ATCC9849, 1 strain. It is filed as cell-based.
Data set [12] is described as follows: Precipitation in EUCAST medium. Format: physicochemical.
Data set [13] concerns Candida glabrata (ATCC 36583, R363). The experiment in a line: MIC, CLSI. Format: cell-based. The settings on record: Nakaseomyces glabratus, ATCC36583, read-out: MIC (the MIC given is the MIC50).
Data set [14] concerns Aspergillus flavus (ATCC 204304). The experiment in a line: MIC, CLSI. The settings on record: ATCC204304. It is filed as cell-based.
Data set [15] relates to Aspergillus flavus (AFL8, NRRC3357). The experiment in a line: MIC, EUCAST. It is filed as cell-based.
The test system of data set [16] is Gibberella zeae (Fusarium graminearum) (ATCC 16106). The experiment in a line: microbe, parasite or virus in culture. As to conditions: ATCC16106. Format: cell-based.
Data set [17] relates to Aspergillus terreus (AT49, AT7130). The experiment in a line: MIC, EUCAST. Format: cell-based.
Data set [18] deals with Mucor circinelloides (ATCC 8542). The experiment in a line: MIC, CLSI. As to conditions: ATCC8542, 1 strain. It is filed as cell-based.
The subject of data set [19] is Rhizomucor pusillus (ATCC 16458). The experiment in a line: MIC, CLSI. Format: cell-based. As to conditions: ATCC16458, 1 strain.
In data set [20] the test system is Candida krusei (ATCC 6258). The experiment in a line: MIC, CLSI. As to conditions: Pichia kudriavzevii, ATCC6258. It is filed as cell-based.
For data set [21], the system named is Chaetomium globosum (ATCC 44699). The experiment in a line: MIC, CLSI. As to conditions: ATCC44699, 1 strain. Format: cell-based.
Data set [22] has as its system Aureobasidium pullulans (ATCC 9348). The experiment in a line: MIC, CLSI. Format: cell-based. As to conditions: ATCC9348, 1 strain.
For a further data set, the system named is A. fumigatus (NCPF2010). The experiment in a line: A. fumigatus cell-based ergosterol assay. The settings on record: Aspergillus fumigatus; NCPF2010, 24 h, normalized by crystal violet; read-out: IC50, inhibition of ergosterol production. Also noted: species or system Aspergillus fumigatus. The protocol:
After incubation for 24 h at 35°C, medium was removed from all wells and replaced with reaction buffer (Amplex red cholesterol assay kit; Thermo Fisher) and Amplex red solution. Plates were incubated for 30 min at 37°C, protected from light, after which fluorescence was quantified using a spectrophotometer. Medium was removed from all wells and replaced with crystal violet solution (1% [vol/vol]), and plates were incubated at room temperature on a shaker for 30 min. Plates were washed three times with phosphate-buffered saline (PBS), and sodium dodecyl sulfate solution (0.1% [vol/vol]) was added across the plate to lyse the cells. After incubation at room temperature for 1 h, the absorbance was measured by determining the OD590 by use of a spectrophotometer.

Data set [23] deals with A. fumigatus hyphae (NCPF2010). The experiment in a line: Persistence of action on A. fumigatus hyphae (resazurin-based microtiter assay). As to conditions: Aspergillus fumigatus, NCPF2010, 16 h, read-out: Hyphae IC50, No washout. (In general: Resazurin is reduced to fluorescent resorufin, in cell work by metabolically active cells.)
Procedure: (§2) The persistence of action of test agents was calculated for A. fumigatus hyphae (NCPF2010). […] The plates were incubated for exactly 20 min at 35°C and 5% CO2. After the incubation time had elapsed, all wells on the designated washout plate were aspirated, and growth medium (100 μl/well) was added across the plate. […] Resazurin (0.04%; diluted in growth medium) was added to all wells of both nonwashout and washout plates (5 μl/well) to give a final concentration of 0.002% resazurin. The plates were incubated at 35°C and 5% CO2 for 16 h. […] The percent inhibition for each well was calculated, and the IC50 was calculated from the concentration-response curve generated for each test compound by use of a four-parameter logistic equation (Dotmatics, Bishops Stortford, United Kingdom).
Data set [24] concerns Lichtheimia corymbifera (ATCC 7909). The experiment in a line: MIC, CLSI. It is filed as cell-based. As to conditions: ATCC7909, 1 strain.
Data set [25] has as its system AR Candida albicans (20183.073, 20186.025). The experiment in a line: MIC, CLSI. As to conditions: read-out: MIC (the MIC given is the MIC50). Format: cell-based.
Data set [26] has as its system A. fumigatus hyphae (NCPF2010).
Procedure: as §2

Molecules are shown by their SMILES. Converted amounts (≈) assume the structure as drawn. “And” between values parts separate entries of the source, which are not always exact repeats. Identical values can stand only once. Like-named read-outs stand apart in the source and are kept apart here. Where only a bound is given, the exact number is not on record here.

Procedure for A. fumigatus ATCC 204305: as §1

Take `C[C@@H]1[C@H](O)[C@@H](C)/C=C/C=C/C=C/C=C/C=C/C=C/C=C/[C@H](O[C@@H]2O[C@H](C)[C@@H](O)[C@H](N)[C@@H]2O)C[C@@H]2O[C@](O)(C[C@@H](O)C[C@@H](O)[C@H](O)CC[C@@H](O)C[C@@H](O)CC(=O)O[C@H]1C)C[C@H](O)[C@H]2C(=O)O` [Amphotericin B, amphotericin B]: the MIC against A. fumigatus ATCC 204305 (ATCC204305, with BSA) stood at 2 µg/mL (≈ 2.16 µM); against A. fumigatus ATCC 204305 (ATCC204305, without BSA), 1 µg/mL (≈ 1.08 µM).
In the same order, the values of `CCC(C)n1ncn(-c2ccc(N3CCN(c4ccc(OCC5COC(Cn6cncn6)(c6ccc(Cl)cc6Cl)O5)cc4)CC3)cc2)c1=O` (stereo not shown) [Itraconazole, itraconazole] are 0.125 µg/mL (≈ 0.177 µM) and 0.25 µg/mL (≈ 0.354 µM).
With `C[C@@H](c1ncncc1F)[C@](O)(Cn1cncn1)c1ccc(F)cc1F` [Voriconazole, voriconazole], the MIC is 2 µg/mL (≈ 5.73 µM) in [1]; 0.063 µg/mL (≈ 0.18 µM) in data set [2]; 1 µg/mL (≈ 2.86 µM) in data set [3]; over 8 µg/mL in data set [5] (1 strain); over 8 µg/mL in data set [5] (Rhizopus arrhizus, ATCC11145, 1 strain, read-out: MIC); 0.42 µg/mL (≈ 1.2 µM) in data set [7] (Aspergillus fumigatus, read-out: MIC, Geometric mean). Also, the MIC is 0.5 µg/mL (≈ 1.43 µM) in data set [7] (Aspergillus fumigatus, read-out: MIC, Mode); 0.5 µg/mL (≈ 1.43 µM) in data set [8]; 0.016 µg/mL (≈ 0.0458 µM) in [9]; 0.5 µg/mL (≈ 1.43 µM) in data set [10]; 1 to 2 µg/mL (≈ 2.86 to 5.73 µM) against A. fumigatus ATCC 204305 (ATCC204305, with BSA); 2 µg/mL (≈ 5.73 µM) with A. fumigatus ATCC 204305 (ATCC204305, without BSA). For the same compound, the MIC in data set [11] is over 8 µg/mL; in data set [14], 2 µg/mL (≈ 5.73 µM); in [15] it was 0.63 µg/mL (≈ 1.8 µM); in [16], over 8 µg/mL; in [17], 1 µg/mL (≈ 2.86 µM); in data set [18] it was over 8 µg/mL. Besides, the MIC in [19] is over 8 µg/mL; in data set [20] it was 0.25 µg/mL (≈ 0.716 µM); in data set [21] it was 1 µg/mL (≈ 2.86 µM); in [22], over 8 µg/mL; in data set [24] it was over 8 µg/mL. Also, the MIC50 in [4] came to 0.14 µg/mL (≈ 0.401 µM); in [7] (Aspergillus fumigatus) it was 0.5 µg/mL (≈ 1.43 µM); in [13], 8.13 µg/mL (≈ 23.3 µM); in data set [25], 10 µg/mL (≈ 28.6 µM). Moreover, in [6] (1 h contact, 24-h washout prior to infection, GM readout), the “BEAS2B cells IC50, Washout” value is on record as “ineffective”. Moreover, the IC50 was 0.054 µg/mL (≈ 0.155 µM) in [6] (1 h contact before infection, GM readout after 24 h, read-out: BEAS2B cells IC50, No washout); over 1 µg/mL in data set [6] (1 h contact, 24-h washout prior to infection, GM readout, read-out: BEAS2B cells IC50, Washout); 0.067 µg/mL and 190 nM in the data set with A. fumigatus (NCPF2010); 0.011 µg/mL (≈ 0.0315 µM) in data set [23]; over 1 µg/mL in data set [26]. Further, the “MIC, Range” value in [7] (96 clinical isolates, determined visually) is 0.064 to 4 µg/mL. This compound also came in with an MIC90 in [7] (Aspergillus fumigatus) of 1 µg/mL (≈ 2.86 µM). In data set [12], the “concentration at which compound precipitated in EUCAST medium” value is recorded as “did not”.

In general, MIC50 refers to an inhibitory concentration at the 50% level, which refers to growth in some studies and to a panel of isolates in others. One may read the IC50 as the concentration at which inhibition is half-maximal. As usually defined, the MIC90 is an inhibitory concentration at the 90% level, which refers to growth in some studies and to a panel of isolates in others.
